The results in this text go back to patent publication US8648066B2 (Exelixis, Inc., priority 2009, dated 2014).

One may read the IC50 as the point on the concentration scale where inhibition reaches its midpoint.

SMILES strings stand for the structures.

The target of this test is mTOR/GbL/Raptor (mTORC1) (Homo sapiens, UniProt P42345). Put plainly: mTOR/GbL/Raptor (mTORC1) ELISA assay. Conditions: phosphorylation of 4E-BP1; 0.2 nM mTORC1, 10 μM ATP; read-out: IC50 in this assay (mTORC1 ELISA). It counts as biochemical. Put shortly:
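Human mTORC1 (0.2 nM) phosphorylated 50 nM His-tagged 4E-BP1 with 10 µM ATP in HEPES pH 7.2 containing 10 mM MnCl2, 120 min at ambient temperature. Substrate was captured on Ni-chelate plates; phospho-4E-BP1 was detected by primary antibody and HRP secondary with luminescence.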
Background: An ELISA detects its analyte on a solid surface through an enzyme-linked reagent.
As for `Cc1nc2ccc(-c3ccc4c(c3)CN(c3ncnc5ccc(OCCCN(C)C)cc35)CCO4)cc2[nH]1` [Example 161, N,N-dimethyl-3-({4-[7-(2-methyl-1H-benzimidazol-6-yl)-2,3-dihydro-1,4-benzoxazepin-4(5H)-yl]quinazolin-6-yl}oxy)propan-1-amine], the IC50 fell in the range of 1000 to 2000 nM. For `CCCOc1ccc2ncnc(N3CCOc4ccc(-c5ccc6nc(C)[nH]c6c5)cc4C3)c2c1` [Example 162, 7-(2-methyl-1H-benzimidazol-6-yl)-4-[6-(propyloxy)quinazolin-4-yl]-2,3,4,5-tetrahydro-1,4-benzoxazepine], the IC50 was 250 to 1000 nM.

On to `COCCOc1ccc2ncnc(N3CCOc4ccc(-c5ccc6nc(C)[nH]c6c5)cc4C3)c2c1` [Example 163, 7-(2-methyl-1H-benzimidazol-6-yl)-4-(6-{[2-(methyloxy)ethyl]oxy}quinazolin-4-yl)-2,3,4,5-tetrahydro-1,4-benzoxazepine], for which the half-inhibitory concentration (IC50) was at least 2000 nM. On to `COc1c(O)ccc2c(N3CCOc4ccc(-c5ccc6nc(C)[nH]c6c5)cc4C3)ncnc12` [Example 164, 4-[7-(2-methyl-1H-benzimidazol-6-yl)-2,3-dihydro-1,4-benzoxazepin-4-(5H)-yl]-8-(methyloxy)quinazolin-7-ol], for which the IC50 was in the range of 250 to 1000 nM. With `COc1c(OCCN(C)C)ccc2c(N3CCOc4ccc(-c5ccc6nc(C)[nH]c6c5)cc4C3)ncnc12` [Example 165, N,N-dimethyl-2-({4-[7-(2-methyl-1H-benzimidazol-6-yl)-2,3-dihydro-1,4-benzoxazepin-4(5H)-yl]-8-(methyloxy)quinazolin-7-yl}oxy)ethanamine], the IC50 was at least 2000 nM. For the molecule `COc1c(OCC(C)C)ccc2c(N3CCOc4ccc(-c5ccc6nc(C)[nH]c6c5)cc4C3)ncnc12` [Example 166, 7-(2-methyl-1H-benzimidazol-6-yl)-4-{8-(methyloxy)-7-[(2-methylpropyl)oxy]quinazolin-4-yl}-2,3,4,5-tetrahydro-1,4-benzoxazepine], the IC50 was in the range of 250 to 1000 nM.

Consider `COc1c(OCc2ccc3ccccc3n2)ccc2c(N3CCOc4ccc(-c5ccc6nc(C)[nH]c6c5)cc4C3)ncnc12` [Example 167, 7-(2-methyl-1H-benzimidazol-6-yl)-4-{8-(methyloxy)-7-[(quinolin-2-ylmethyl)oxy]quinazolin-4-yl}-2,3,4,5-tetrahydro-1,4-benzoxazepine], for which the IC50 is at least 2000 nM. As to `COc1c(OCC2CC2)ccc2c(N3CCOc4ccc(-c5ccc6nc(C)[nH]c6c5)cc4C3)ncnc12` [Example 168, 4-{7-[(cyclopropylmethyl)oxy]-8-(methyloxy)quinazolin-4-yl}-7-(2-methyl-1H-benzimidazol-6-yl)-2,3,4,5-tetrahydro-1,4-benzoxazepine], the IC50 lay in the range of 250 to 1000 nM.

For the molecule `Cc1nc2ncc(-c3ccc4c(c3)CN(c3ncncc3C)CCO4)cc2[nH]1` [Example 169, 7-(2-methyl-1H-imidazo[4,5-b]pyridin-6-yl)-4-(5-methylpyrimidin-4-yl)-2,3,4,5-tetrahydro-1,4-benzoxazepine], the IC50 was in the range of 250 to 1000 nM. `Cc1ncnc(N2CCOc3ccc(-c4ccc(C(N)=O)cc4)cc3C2)c1Cc1ccc(F)cc1` [Example 170, 4-(4-{5-[(4-fluorophenyl)methyl]-6-methylpyrimidin-4-yl}-2,3,4,5-tetrahydro-1,4-benzoxazepin-7-yl)benzamide]: the IC50 is at most 10 nM. Regarding `CNC(=O)c1ccc(-c2ccc3c(c2)CN(c2ncnc(C)c2Cc2ccc(F)cc2)CCO3)cc1` [Example 171, 4-(4-{5-[(4-fluorophenyl)methyl]-6-methylpyrimidin-4-yl}-2,3,4,5-tetrahydro-1,4-benzoxazepin-7-yl)-N-methylbenzamide], the IC50 is at most 10 nM. In the case of `Cc1ncnc(N2CCOc3ccc(-c4ccc(C(=O)NC5CC5)cc4)cc3C2)c1Cc1ccc(F)cc1` [Example 172, N-cyclopropyl-4-(4-{5-[(4-fluorophenyl)methyl]-6-methylpyrimidin-4-yl}-2,3,4,5-tetrahydro-1,4-benzoxazepin-7-yl)benzamide], the IC50 is 50 to 250 nM.

Turning to `Cc1ncnc(N2CCOc3ccc(-c4ccc(C(=O)NCC(F)F)cc4)cc3C2)c1Cc1ccc(F)cc1` [Example 174, N-(2,2-difluoroethyl)-4-(4-{5-[(4-fluorophenyl)methyl]-6-methylpyrimidin-4-yl}-2,3,4,5-tetrahydro-1,4-benzoxazepin-7-yl)benzamide], the IC50 was at most 10 nM. For the molecule `COC(=O)Nc1nc2ncc(-c3ccc4c(c3)CN(c3ncnc(C)c3Cc3ccc(F)cc3)CCO4)cc2[nH]1` [Example 175, methyl [6-(4-{5-[(4-fluorophenyl)methyl]-6-methylpyrimidin-4-yl}-2,3,4,5-tetrahydro-1,4-benzoxazepin-7-yl)-1H-imidazo[4,5-b]pyridin-2-yl]carbamate], the IC50 is at most 10 nM. As to `Cc1ncnc(N2CCOc3ccc(-c4cnc5nc(N)[nH]c5c4)cc3C2)c1Cc1ccc(F)cc1` [Example 176, 6-(4-{5-[(4-fluorophenyl)methyl]-6-methylpyrimidin-4-yl}-2,3,4,5-tetrahydro-1,4-benzoxazepin-7-yl)-1H-imidazo[4,5-b]pyridin-2-amine], the IC50 is at most 10 nM.

`CC1(C)CCc2ncnc(N3CCOc4ccc(-c5cnc6nc(N)[nH]c6c5)cc4C3)c2C1` [Example 177, 6-[4-(6,6-dimethyl-5,6,7,8-tetrahydroquinazolin-4-yl)-2,3,4,5-tetrahydro-1,4-benzoxazepin-7-yl]-1H-imidazo[4,5-b]pyridin-2-amine]: the IC50 was at most 10 nM. On to `CCC1CCc2ncnc(N3CCOc4ccc(-c5cnc6nc(N)[nH]c6c5)cc4C3)c2C1` (stereo not drawn) [Example 178, 6-[4-(6-ethyl-5,6,7,8-tetrahydroquinazolin-4-yl)-2,3,4,5-tetrahydro-1,4-benzoxazepin-7-yl]-1H-imidazo[4,5-b]pyridin-2-amine], for which the IC50 is at most 10 nM.

As to `CC1CCc2c(ncnc2N2CCOc3ccc(-c4cnc5nc(N)[nH]c5c4)cc3C2)C1` (stereo not drawn) [Example 179, 6-[4-(7-methyl-5,6,7,8-tetrahydroquinazolin-4-yl)-2,3,4,5-tetrahydro-1,4-benzoxazepin-7-yl]-1H-imidazo[4,5-b]pyridin-2-amine], the IC50 lay within 10 to 50 nM. Consider `COc1cc2ncnc(N3CCOc4ccc(-c5cnc6nc(N)[nH]c6c5)cc4C3)c2cc1OC` [Example 180, 6-{4-[6,7-bis(methyloxy)quinazolin-4-yl]-2,3,4,5-tetrahydro-1,4-benzoxazepin-7-yl}-1H-imidazo[4,5-b]pyridin-2-amine], for which the IC50 lay within 10 to 50 nM. For `Nc1nc2ncc(-c3ccc4c(c3)CN(c3ncnc5ccc(Br)cc35)CCO4)cc2[nH]1` [Example 181, 6-[4-(6-brromoquinazolin-4-yl)-2,3,4,5-tetrahydro-1,4-benzoxazepin-7-yl]-1H-imidazo[4,5-b]pyridin-2-amine] the value was at most 10 nM; for `COc1ccc2ncnc(N3CCOc4ccc(-c5cnc6nc(N)[nH]c6c5)cc4C3)c2c1` [Example 182, 6-{4-[6-(methyloxy)quinazolin-4-yl]-2,3,4,5-tetrahydro-1,4-benzoxazepin-7-yl}-1H-imidazo[4,5-b]pyridin-2-amine], 10 to 50 nM; for `Nc1nc2ncc(-c3ccc4c(c3)CN(c3ncnc5ccc(I)cc35)CCO4)cc2[nH]1` [Example 183, 6-[4-(6-iodoquinazolin-4-yl)-2,3,4,5-tetrahydro-1,4-benzoxazepin-7-yl]-1H-imidazo[4,5-b]pyridin-2-amine], at most 10 nM. On to `COc1cc2c(N3CCOc4ccc(-c5cnc6nc(N)[nH]c6c5)cc4C3)ncnc2cc1Br` [Example 184, 6-{4-[7-bromo-6-(methyloxy)quinazolin-4-yl]-2,3,4,5-tetrahydro-1,4-benzoxazepin-7-yl}-1H-imidazo[4,5-b]pyridin-2-amine], for which the IC50 was in the range of 250 to 1000 nM. In the case of `Nc1nc2ncc(-c3ccc4c(c3)CN(c3ncnc5cc(Cl)c(Br)cc35)CCO4)cc2[nH]1` [Example 185, 6-[4-(6-bromo-7-chloroquinazolin-4-yl)-2,3,4,5-tetrahydro-1,4-benzoxazepin-7-yl]-1H-imidazo[4,5-b]pyridin-2-amine], the IC50 lay in the range of 10 to 50 nM. Take `Nc1nc2ncc(-c3ccc4c(c3)CN(c3ncnc5ccc(Cl)cc35)CCO4)cc2[nH]1` [Example 186, 6-[4-(6-chloroquinazolin-4-yl)-2,3,4,5-tetrahydro-1,4-benzoxazepin-7-yl]-1H-imidazo[4,5-b]pyridin-2-amine]: the IC50 was in the range of 10 to 50 nM. On to `Nc1nc2ncc(-c3ccc4c(c3)CN(c3ncnc5ccc(F)cc35)CCO4)cc2[nH]1` [Example 187, 6-[4-(6-fluoroquinazolin-4-yl)-2,3,4,5-tetrahydro-1,4-benzoxazepin-7-yl]-1H-imidazo[4,5-b]pyridin-2-amine], for which the IC50 was 10 to 50 nM. For `COc1cc2nccc(N3CCOc4ccc(-c5cnc6nc(N)[nH]c6c5)cc4C3)c2cc1OC` [Example 188, 6-{4-[6,7-bis(methyloxy)quinolin-4-yl]-2,3,4,5-tetrahydro-1,4-benzoxazepin-7-yl}-1H-imidazo[4,5-b]pyridin-2-amine] the value was 50 to 250 nM. `Cc1ncnc(N2CCOc3ccc(-c4ccc5nc(N)[nH]c5c4)cc3C2)c1Cc1ccc(F)cc1` [Example 189, 6-(4-{5-[(4-fluorophenyl)methyl]-6-methylpyrimidin-4-yl}-2,3,4,5-tetrahydro-1,4-benzoxazepin-7-yl)-1H-benzimidazol-2-amine]: the IC50 was at most 10 nM. For the molecule `Nc1nc2ccc(-c3ccc4c(c3)CN(c3ccnc5ccccc35)CCO4)cc2[nH]1` [Example 190, 6-(4-quinolin-4-yl-2,3,4,5-tetrahydro-1,4-benzoxazepin-7-yl)-1H-benzimidazol-2-amine], the IC50 is 250 to 1000 nM. To `COc1cc2nccc(N3CCOc4ccc(-c5ccc6nc(N)[nH]c6c5)cc4C3)c2cc1OC` [Example 191, 6-{4-[6,7-bis(methyloxy)quinolin-4-yl]-2,3,4,5-tetrahydro-1,4-benzoxazepin-7-yl}-1H-benzimidazol-2-amine] belongs 250 to 1000 nM.
